The source of these data is patent US7935702B2, “Substituted biaryl quinolin-4-ylamine analogues” (Neurogen Corporation, priority 2004, dated 2011).

Molecules are shown by their SMILES.

The target in the first experiment is T1, human capsaicin receptor (Homo sapiens, UniProt Q8NER1).
T1 construct: expressed in transfected cells
T1 sequence (Q8NER1 whole entry): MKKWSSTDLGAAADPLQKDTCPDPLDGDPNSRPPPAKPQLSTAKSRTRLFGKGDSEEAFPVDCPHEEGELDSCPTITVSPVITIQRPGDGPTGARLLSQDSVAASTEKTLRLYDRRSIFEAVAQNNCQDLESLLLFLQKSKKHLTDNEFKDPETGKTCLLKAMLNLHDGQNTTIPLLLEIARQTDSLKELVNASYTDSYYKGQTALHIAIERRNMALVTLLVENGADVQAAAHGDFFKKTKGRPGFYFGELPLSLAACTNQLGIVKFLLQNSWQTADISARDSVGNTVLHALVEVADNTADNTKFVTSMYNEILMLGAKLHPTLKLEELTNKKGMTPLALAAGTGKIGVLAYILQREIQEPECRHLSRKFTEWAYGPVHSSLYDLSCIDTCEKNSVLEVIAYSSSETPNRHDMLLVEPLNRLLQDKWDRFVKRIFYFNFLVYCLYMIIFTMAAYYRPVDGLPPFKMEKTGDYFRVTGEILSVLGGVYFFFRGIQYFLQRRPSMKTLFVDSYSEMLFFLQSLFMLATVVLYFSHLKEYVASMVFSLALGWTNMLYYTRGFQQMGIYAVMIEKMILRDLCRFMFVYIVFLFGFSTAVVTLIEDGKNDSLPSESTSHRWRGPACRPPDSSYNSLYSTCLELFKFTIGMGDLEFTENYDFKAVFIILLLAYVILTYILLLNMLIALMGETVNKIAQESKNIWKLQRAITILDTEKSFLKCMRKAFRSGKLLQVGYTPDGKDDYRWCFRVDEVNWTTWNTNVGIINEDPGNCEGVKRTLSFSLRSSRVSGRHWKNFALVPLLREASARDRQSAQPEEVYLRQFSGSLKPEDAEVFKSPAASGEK
Put plainly: Calcium mobilization assay, determination of antagonist activity (Example 6). It is filed as cell-based. Further details: IC50 determined as described in Example 6: scale not given here. To be noted: Table I; IC50 determined as described in Example 6; read-out: IC50. The protocol: A cDNA encoding full length human capsaicin receptor (SEQ ID NO:1, 2 or 3 of U.S. Pat. No. 6,482,611) is subcloned in the plasmid pBK-CMV (Stratagene, La Jolla, Calif.) for recombinant expression in mammalian cells.
Human embryonic kidney (HEK293) cells are transfected with the pBK-CMV expression construct encoding the full length human capsaicin receptor using standard methods. The transfected cells are selected for two weeks in media containing G418 (400 μg/ml) to obtain a pool of stably transfected cells. Independent clones are isolated from this pool by limiting dilution to obtain clonal stable cell lines for use in subsequent experiments.
This Example illustrates representative calcium mobilization assays for use in evaluating test compounds for agonist and antagonist activity.
Cells transfected with expression plasmids (as described in Example 4) and thereby expressing human capsaicin receptor are seeded and grown to 70-90% confluency in FALCON black-walled, clear-bottomed 96-well plates (#3904, BECTON-DICKINSON, Franklin Lakes, N.J.). The culture medium is emptied from the 96 well plates and FLUO-3 AM calcium sensitive dye (Molecular Probes, Eugene, Oreg.) is added to each well (dye solution: 1 mg FLUO-3 AM, 440 μL DMSO and 440 μl 20% pluronic acid in DMSO, diluted 1:250 in Krebs-Ringer HEPES (KRH) buffer (25 mM HEPES, 5 mM KCl, 0.96 mM NaH2PO4, 1 mM MgSO4, 2 mM CaCl2, 5 mM glucose, 1 mM probenecid, pH 7.4), 50 μl diluted solution per well). Plates are covered with aluminum foil and incubated at 37° C. for 1-2 hours in an environment containing 5% CO2. After the incubation, the dye is emptied from the plates, and the cells are washed once with KRH buffer, and resuspended in KRH buffer.
To measure the ability of a test compound to agonize or antagonize a calcium mobilization response in cells expressing capsaicin receptors to capsaicin or other vanilloid agonist, the EC50 of the agonist capsaicin is first determined. An additional 20 μl of KRH buffer and 1 μl DMSO is added to each well of cells, prepared as described above. 100 μl capsaicin in KRH buffer is automatically transferred by the FLIPR instrument to each well. Capsaicin-induced calcium mobilization is monitored using either FLUOROSKAN ASCENT (Labsystems; Franklin, Mass.) or FLIPR (fluorometric imaging plate reader system; Molecular Devices, Sunnyvale, Calif.) instruments. Data obtained between 30 and 60 seconds after agonist application are used to generate an 8-point concentration response curve, with final capsaicin concentrations of 1 nM to 3 μM. KALEIDAGRAPH software (Synergy Software, Reading, Pa.) is used to fit the data to the equation: y=a*(1/(1+(b/x)^c)) to determine the 50% excitatory concentration (EC50) for the response. In this equation, y is the maximum fluorescence signal, x is the concentration of the agonist or antagonist (in this case, capsaicin), a is the Emax, b corresponds to the EC50 value and c is the Hill coefficient. Determination of Agonist Activity
Test compounds are dissolved in DMSO, diluted in 20 μl KRH buffer so that the final concentration of test compounds in the assay well is between 1 μM and 5 μM, and added to cells prepared as described above. The 96 well plates containing prepared cells and test compounds are incubated in the dark, at room temperature for 0.5 to 6 hours. It is important that the incubation not continue beyond 6 hours. Just prior to determining the fluorescence response, 100 μl capsaicin in KRH buffer at twice the EC50 concentration determined as described above is automatically added by the FLIPR instrument to each well of the 96 well plate for a final sample volume of 200 μl and a final capsaicin concentration equal to the EC50. The final concentration of test compounds in the assay wells is between 1 μM and 5 μM. […]
(In general: A change in cytosolic calcium serves as a functional read-out for many receptors and channels.)
Regarding `Oc1ccc(C(F)(F)F)c(-c2ccc3c(Nc4ccc(C(F)(F)F)cn4)ccnc3n2)n1` [compound 21, 5-Trifluoromethyl-6-[5-(5-trifluoromethyl-pyridin-2-ylamino)-[1,8]naphthyridin-2-yl]-pyridin-2-ol], the 50% inhibitory concentration (IC50) is under 1000 nM. For the molecule `O=C(O)c1cnc(-c2ccc3c(Nc4ccc(C(F)(F)F)cn4)ccnc3n2)c(C(F)(F)F)c1` [compound 22, 5-Trifluoromethyl-6-[5-(5-trifluoromethyl-pyridin-2-ylamino)-[1,8]naphthyridin-2-yl]-nicotinic acid], the IC50 is under 1000 nM. Still for that read-out and setting: for `FC(F)(F)c1ccc(Nc2ccnc3nc(-c4nc(Cl)ccc4C(F)(F)F)ccc23)nc1` [compound 23, [7-(6-Chloro-3-trifluoromethyl-pyridin-2-yl)-[1,8]naphthyridin-4-yl]-(5-trifluoromethyl-pyridin-2-yl)-amine] the value was under 1000 nM. Still for that read-out and setting: for `N#Cc1ccc(C(F)(F)F)c(-c2ccc3c(Nc4ccc(C(F)(F)F)cn4)ccnc3n2)n1` [compound 24, 5-Trifluoromethyl-6-[5-(5-trifluoromethyl-pyridin-2-ylamino)-[1,8]naphthyridin-2-yl]-pyridine-2-carbonitrile] the value was under 1000 nM; for `NC(=O)c1ccc(C(F)(F)F)c(-c2ccc3c(Nc4ccc(C(F)(F)F)cn4)ccnc3n2)n1` [compound 25, 5-Trifluoromethyl-6-[5-(5-trifluoromethyl-pyridin-2-ylamino)-[1,8]naphthyridin-2-yl]-pyridine-2-carboxylic acid amide], under 1000 nM. On to `O=C(O)c1ccc(C(F)(F)F)c(-c2ccc3c(Nc4ccc(C(F)(F)F)cn4)ccnc3n2)n1` [compound 26, 5-Trifluoromethyl-6-[5-(5-trifluoromethyl-pyridin-2-ylamino)-[1,8]naphthyridin-2-yl]-pyridine-2-carboxylic acid], for which the half-maximal inhibitory concentration (IC50) is under 1000 nM. Still for that read-out and setting: for `Cc1ccc(C(F)(F)F)c(-c2ccc3c(Nc4ccc(C(F)(F)F)cn4)ccnc3n2)n1` [compound 28, [7-(6-Methyl-3-trifluoromethyl-pyridin-2-yl)-[1,8]naphthyridin-4-yl]-(5-trifluoromethyl-pyridin-2-yl)-amine] the value was under 1000 nM; for `CC(=O)c1ccc(C(F)(F)F)c(-c2ccc3c(Nc4ccc(C(F)(F)F)cn4)ccnc3n2)n1` [compound 29, 1-{5-Trifluoromethyl-6-[5-(5-trifluoromethyl-pyridin-2-ylamino)-[1,8]naphthyridin-2-yl]-pyridin-2-yl}-ethanone], under 1000 nM; for `FC(F)(F)c1ccc(Nc2ccnc3nc(-c4ncc(Br)cc4C(F)(F)F)cnc23)nc1` [compound 31, [3-(5-Bromo-3-trifluoromethyl-pyridin-2-yl)-pyrido[2,3-b]pyrazin-8-yl]-(5-trifluoromethyl-pyridin-2-yl)-amine], under 1000 nM.

The experiment is the same for the next values; noted with them: cells expressing human capsaicin receptor; capsaicin at EC50.
Consider `N#Cc1cnc(-c2cnc3c(Nc4ccc(C(F)(F)F)cn4)ccnc3n2)c(C(F)(F)F)c1` [Compound 11, 5-(Trifluoromethyl)-6-(8-(5-(trifluoromethyl)pyridin-2-ylamino)pyrido[2,3-b]pyrazin-3-yl)nicotinonitrile], for which the “IC50 determined as described in Example 6” value is listed as “less”.

Staying with this experiment, now noted: cells expressing human capsaicin receptor; capsaicin at EC50; read-out: IC50 determined as described in Example 6.
On to `Cc1cc(F)cnc1-c1ccc2c(Nc3ccc(C(F)(F)F)cn3)ccnc2n1` [Compound 2, 7-(5-Fluoro-3-methylpyridin-2-yl)-N-(5-(trifluoromethyl)ipyridin-2-yl)-1,8-naphthyridin-4-amine], for which the 50% inhibitory concentration (IC50) was under 1000 nM.

Consider `Nc1cnc(-c2ccc3c(Nc4ccc(C(F)(F)F)cn4)ccnc3n2)c(C(F)(F)F)c1` [Compound 3, 7-(5-Amino-3-(trifluoromethyl)pyridin-2-yl)-N-(5-(trifluoromethyl)pyridin-2-yl)-1,8-naphthyridin-4-amine], for which the 50% inhibitory concentration (IC50) was under 1000 nM.

On to `NC(=O)c1cnc(-c2cnc3c(Nc4ccc(C(F)(F)F)cn4)ccnc3n2)c(C(F)(F)F)c1` [Compound 4, 5-Trifluoromethyl-6-[8-(5-trifluoromethyl-pyridin-2-ylamino)-pyrido[2,3-b]pyrazin-3-yl]-nicotinamide], for which the concentration for half-maximal inhibition (IC50) is under 1000 nM. On the same count and under the same terms, then `COc1ccc(C(F)(F)F)c(-c2ccc3c(Nc4ccc(C(F)(F)F)cn4)ccnc3n2)n1` [Compound 5, [7-(6-Methoxy-3-trifluoromethyl-pyridin-2-yl)-[1,8]naphthyridin-4-yl]-(5-trifluoromethyl-pyridin-2-yl)-amine], with under 1000 nM; and `COc1ccc(C(F)(F)F)c(-c2ccc3c(Nc4ncc(C(F)(F)F)cn4)ccnc3n2)n1` [Compound 6, [7-(6-Methoxy-3-trifluoromethyl-pyridin-2-yl)-[1,8]naphthyridin-4-yl]-(5-trifluoromethyl-pyrimidin-2-yl)-amine], with under 1000 nM; and `N#Cc1cnc(-c2ccc3c(Nc4ccc(C(F)(F)F)cn4)ccnc3n2)c(C(F)(F)F)c1` [Compound 7, 5-Trifluoromethyl-6-[5-(5-trifluoromethyl-pyridin-2-ylamino)-[1,8]naphthyridin-2-yl]-nicotinonitrile], with under 1000 nM. Still for that read-out and setting: for `NC(=O)c1cnc(-c2ccc3c(Nc4ccc(C(F)(F)F)cn4)ccnc3n2)c(C(F)(F)F)c1` [Compound 8, 5-Trifluoromethyl-6-[5-(5-trifluoromethyl-pyridin-2-ylamino)-[1,8]naphthyridin-2-yl]-nicotinamide] the value was under 1000 nM; for `CCOc1nc(Nc2ccnc3nc(-c4ncc(C(N)=O)cc4C(F)(F)F)cnc23)ccc1C(F)(F)F` [Compound 9, 6-(8-(6-Ethoxy-5-(trifluoromethyl)pyridin-2-ylamino)pyrido[2,3-b]pyrazin-3-yl)-5-(trifluoromethyl)nicotinamide], under 1000 nM. On the same count and under the same terms, then `FC(F)(F)c1ccc(Nc2ccnc3nc(-c4ncc(Br)cc4C(F)(F)F)cnc23)nc1` [Compound 10, 3-(5-Bromo-3-(trifluoromethyl)pyridin-2-yl)-N-(5-(trifluoromethyl)pyridin-2-yl)pyrido[2,3-b]pyrazin-8-amine], with under 1000 nM; and `O=C(O)c1cnc(-c2cnc3c(Nc4ccc(C(F)(F)F)cn4)ccnc3n2)c(C(F)(F)F)c1` [Compound 13, 5-(Trifluoromethyl)-6-(8-(5-(trifluoromethyl)pyridin-2-ylamino)pyrido[2,3-b]pyrazin-3-yl)nicotinic acid], with under 1000 nM. Take `NC(=O)c1cnc(-c2cnc3c(Nc4cnc5ccccc5n4)ccnc3n2)c(C(F)(F)F)c1` [Compound 14, 6-(8-(Quinoxalin-2-ylamino)pyrido[2,3-b]pyrazin-3-yl)-5-(trifluoromethyl)nicotinamide]: the half-inhibitory concentration (IC50) is under 1000 nM. In the case of `NC(=O)c1cnc(-c2cnc3c(Nc4cnc(C(F)(F)F)cn4)ccnc3n2)c(C(F)(F)F)c1` [Compound 15, 5-(Trifluoromethyl)-6-(8-(5-(trifluoromethyl)pyrazin-2-ylamino)pyrido[2,3-b]pyrazin-3-yl)nicotinamide], the IC50 was under 1000 nM.

On to `CCOc1cc(C(F)(F)F)c(-c2cnc3c(Nc4ccc(C(F)(F)F)cn4)ccnc3n2)nn1` [Compound 16], for which the IC50 was under 1000 nM. Consider `FC(F)(F)c1ccc(Nc2ccnc3nc(-c4nnc(N5CCOCC5)cc4C(F)(F)F)cnc23)nc1` [Compound 19], for which the IC50 was under 1000 nM. Same read-out and setting: then `FC(F)(F)c1ccc(Nc2ccnc3nc(-c4nnc(NCc5cccnc5)cc4C(F)(F)F)cnc23)nc1` [Compound 20], with under 1000 nM.

One may read the IC50 as the concentration needed to halve the response being measured.
